From paper PMC7690585, “Target-Mediated Brain Tissue Binding for Small Molecule Inhibitors of Heat Shock Protein 90” (Pharmaceutics, 2020)

Assay: in vitro
Details: NMRI, mouse, brain homogenate, pH 7
Method: Brain tissue from Naval Medical Research Institute (NMRI) mice was homogenized in phosphate buffer (1 g: 2 mL) and stored in −80 °C freezer before use. For dialysis experiment, 150 µL of brain homogenate (fresh blood collected on EDTA-K2 and diluted 1:1 with phosphate buffer or plasma) was added to one compartment of a dialysis plate (assembled according to the manufacturer instructions with a dialysis membrane between the 2 compartments) against 150 µL of phosphate buffer pH 7. The test compound was added to the compartment with brain homogenate (or plasma) and the plate was incubated in an incubator with a 5% CO2 and rotating at 150 rpm for 5 h. At the end of the incubation time, aliquots of 90 µL of samples were removed from both the buffer and the brain homogenate compartments. The aliquots were added to 120 µL of acetonitrile containing the internal standard. The mixture was centrifuged at 4000 rpm for 10 min and the supernatant was collected for LC-MS/MS analysis. All equilibrium dialysis studies were performed in triplicate at each tested concentration.
Binding to brain tissues was assessed using 6 different concentrations of test items ranging from 0.3 to 100 µM. Warfarin was used as control.
Determination of fractions unbound was conducted according to the equations below:fu = Creceiver (CT0 − Creceiver)(1)
In brain homogenate (blood or plasma):(2) % Undiluted fu=100 ×1/D/1/fu−1+1/D (3) % Recovery=100 × Creceiver +Cdonor/CT0 where
Dilution factor (D) is determined as 3 in this assay.

Q: Which results are given for `CC(=O)CC(c1ccccc1)c1c(O)c2ccccc2oc1=O` (stereo not shown) [Warfarin]?
A: Ratio (30 µM/1 µM) Unbound Fractions in Brain (5 h): 1.5; fraction unbound at 5 h, 0.3 µM: 0.086 ± 0.002; fraction unbound at 5 h, 1 µM: 0.112 ± 0.001; fraction unbound at 5 h, 3 µM: 0.143 ± 0.005; fraction unbound at 5 h, 10 µM: 0.143 ± 0.006; fraction unbound at 5 h, 30 µM: 0.168 ± 0.006; fraction unbound at 5 h, 100 µM: 0.179 ± 0.009
